From US20230414644A1, “ORAL CANINE FEED AND METHODS FOR CONTROLLING FLEA INFESTATIONS IN A CANINE” (In the Bowl Animal Health, Inc., priority 2021, published 2023)

System: Ctenocephalides felis
Experiment: Efficacy of spinosyn administered per os (liquid formulation, daily) to dogs against experimental flea infestation, comb counts of live adult fleas
Assay type: in vivo
Conditions: for percent reduction in live adult flea counts: day 14 comb count; for Efficacy (percent reduction in live adult flea counts): day 37, after the five day wash out period
Description: Efficacy of Spinosyn Administered Per Os, i.e. by Mouth, to Dogs for the Treatment and Control of Ctenocephalides felis.
Methods: A pool of 40 dogs are to be preliminarily infested with ˜100 unfed adult C. felis in order to produce a pool of dogs that can suitably sustain a reliable infestation rate of approximately 50% of live fleas over a 48-hour period. The dogs with the highest live flea counts are to be randomly allocated to 4 treatment groups (6 dogs per group) based on their pre-treatment flea counts from experimental infestations. The first treatment group is to be the control group and groups 2-4 are to be the test groups.
The dogs are to be housed individually during the study period and are to be fed a commercial dry dog food ration with ad libitum access to water.
Dogs in the control group are not to receive a spinosyn or any other flea control treatment. Each dog in test groups 2-4 is to be offered its daily ration (dry food) and the individual doses of liquid formulation are to be administered after the individual dog has eaten at least 25% of its total daily ration. After receiving the dose of a spinosyn the dogs are to be allowed to continue eating. This mimics incorporating the spinosyn in feed. Each dog in test groups 2-4 and the control group is to be experimentally infested with 100 unfed adult fleas on test days −1, 5, 12, 19, 28 and 35. Comb counts for live adult fleas are to be conducted on days 2, 7, 14, 21, 30 and 37. The final experimental infestation is to occur five days after the last daily dose of spinosyn.

spinosad
percent reduction in live adult flea counts (0.25 mg/kg daily oral (Group 2)): 100%
percent reduction in live adult flea counts (0.50 mg/kg daily oral (Group 3)): 100%
Efficacy (percent reduction in live adult flea counts) (0.50 mg/kg daily oral days 0-29 (Group 3)): over 98%
percent reduction in live adult flea counts (1.0 mg/kg daily oral (Group 4)): 100%
Efficacy (percent reduction in live adult flea counts) (1.0 mg/kg daily oral days 0-29 (Group 4)): over 98%
